Source: US11958832B1, “2-alkoxy[4,3:6,3-terpyridine]-3-carbonitriles as antimicrobial compounds” (KING FAISAL UNIVERSITY, priority 2023, dated 2024)

Columns and labels:
Assay type in all cases: cell-based
Aspergillus flavus = experiment: Agar plate disc-diffusion, antifungal inhibition zone; conditions: Sabouraud's dextrose agar, 37° C., 72 hours, DMSO zone subtracted; for inhibition zone, Aspergillus flavus, A: A = concentration of comp. = 10,000 μL; for inhibition zone, Aspergillus flavus, B: B = concentration of comp. = 30,000 μL; for inhibition zone, Aspergillus flavus, C: C = concentration of comp. = 50,000 μL
Procedure: (§1) The agar plate disc-diffusion method was applied. Sterilized filter papers (6 mm in diameter) were wetted with 10 μL of a solution of compounds 2-ethoxy[4,3:6,3-terpyridine]-3-carbonitrile 4 and/or 2-methoxy[4,3:6,3-terpyridine]-3-carbonitrile 5 to be tested, […], and the discs were allowed to air dry. The discs were then placed onto the surface of agar plates (nutrient agar for bacteria and Sabouraud's dextrose agar for fungi) seeded with the test organism. Each plate contained 15 mL of the agar medium, previously seeded with 0.2 mL of the broth culture of each organism pregrown for 18 h. The plates were incubated at 37° C. for 48 hours, and 72 hours for fungi. The inhibition zones were measured in mm. Discs impregnated with DMSO were used as a control, and its inhibition zone was subtracted from the tested compound actual inhibition zone.

[1] = system: Chrysosporium keratinophilum; experiment: as above; conditions: Sabouraud's dextrose agar, 37° C., 72 hours, DMSO zone subtracted; for inhibition zone, Chrysosporium keratinophilum, A: A = concentration of comp. = 10,000 μL; for inhibition zone, Chrysosporium keratinophilum, B: B = concentration of comp. = 30,000 μL; for inhibition zone, Chrysosporium keratinophilum, C: C = concentration of comp. = 50,000 μL
Procedure: as §1

Pseudomonas aeruginosa = experiment: Agar plate disc-diffusion, antibacterial inhibition zone; conditions: nutrient agar, 37° C., 48 hours, DMSO zone subtracted; for inhibition zone, Pseudomonas aeruginosa, A: A = concentration of comp. = 10,000 μL; for inhibition zone, Pseudomonas aeruginosa, B: B = concentration of comp. = 30,000 μL; for inhibition zone, Pseudomonas aeruginosa, C: C = concentration of comp. = 50,000 μL
Procedure: as §1

Escherichia coli = experiment: as above; conditions: nutrient agar, 37° C., 48 hours, DMSO zone subtracted; for inhibition zone, Escherichia coli, A: A = concentration of comp. = 10,000 μL; for inhibition zone, Escherichia coli, B: B = concentration of comp. = 30,000 μL; for inhibition zone, Escherichia coli, C: C = concentration of comp. = 50,000 μL
Procedure: as §1

Bacillus cereus = experiment: as above; conditions: nutrient agar, 37° C., 48 hours, DMSO zone subtracted; for inhibition zone, Bacillus Cereus, A: A = concentration of comp. = 10,000 μL; for inhibition zone, Bacillus Cereus, B: B = concentration of comp. = 30,000 μL; for inhibition zone, Bacillus Cereus, C: C = concentration of comp. = 50,000 μL
Procedure: as §1

Staphylococcus aureus = experiment: as above; conditions: nutrient agar, 37° C., 48 hours, DMSO zone subtracted; for inhibition zone, Staphylococcus aureus, A: A = concentration of comp. = 10,000 μL; for inhibition zone, Staphylococcus aureus, B: B = concentration of comp. = 30,000 μL; for inhibition zone, Staphylococcus aureus, C: C = concentration of comp. = 50,000 μL
Procedure: The agar plate disc-diffusion method was applied. […] The discs were then placed onto the surface of agar plates (nutrient agar for bacteria and Sabouraud's dextrose agar for fungi) seeded with the test organism. Each plate contained 15 mL of the agar medium, previously seeded with 0.2 mL of the broth culture of each organism pregrown for 18 h. The plates were incubated at 37° C. for 48 hours, and 72 hours for fungi. The inhibition zones were measured in mm. Discs impregnated with DMSO were used as a control, and its inhibition zone was subtracted from the tested compound actual inhibition zone.

| SMILES | inhibition zone, Aspergillus flavus, A (Aspergillus flavus) [mm] | inhibition zone, Aspergillus flavus, B (Aspergillus flavus) [mm] | inhibition zone, Aspergillus flavus, C (Aspergillus flavus) [mm] | inhibition zone, Chrysosporium keratinophilum, A [1] [mm] | inhibition zone, Chrysosporium keratinophilum, B [1] [mm] | inhibition zone, Chrysosporium keratinophilum, C [1] [mm] | inhibition zone, Pseudomonas aeruginosa, A (Pseudomonas aeruginosa) [mm] | inhibition zone, Pseudomonas aeruginosa, B (Pseudomonas aeruginosa) [mm] | inhibition zone, Pseudomonas aeruginosa, C (Pseudomonas aeruginosa) [mm] | inhibition zone, Escherichia coli, A (Escherichia coli) [mm] | inhibition zone, Escherichia coli, B (Escherichia coli) [mm] | inhibition zone, Escherichia coli, C (Escherichia coli) [mm] | inhibition zone, Bacillus Cereus, A (Bacillus cereus) [mm] | inhibition zone, Bacillus Cereus, B (Bacillus cereus) [mm] | inhibition zone, Bacillus Cereus, C (Bacillus cereus) [mm] | inhibition zone, Staphylococcus aureus, A (Staphylococcus aureus) [mm] | inhibition zone, Staphylococcus aureus, B (Staphylococcus aureus) [mm] | inhibition zone, Staphylococcus aureus, C (Staphylococcus aureus) [mm] |
| --- | --- | --- | --- | --- | --- | --- | --- | --- | --- | --- | --- | --- | --- | --- | --- | --- | --- | --- |
| CCOc1nc(-c2cccnc2)cc(-c2cccnc2)c1C#N [Compound 4, 2-ethoxy[4,3:6,3-terpyridine]-3-carbonitrile] | 21 | 25 | 35 | 24 | 27 | 40 | 24 | 29 | 39 | 27 | 37 | 48 | 24 | 27 | 35 | 18 | 22 | 34 |
| COc1nc(-c2cccnc2)cc(-c2cccnc2)c1C#N [Compound 5, 2-methoxy[4,3:6,3-terpyridine]-3-carbonitrile] | 25 | 27 | 38 | 27 | 29 | 48 | 24 | 32 | 38 | 28 | 38 | 50 | 26 | 28 | 38 | 19 | 28 | 34 |
